US20160331708A1 (priority 2014, published 2016)
≈ marks a conversion by molar mass, not a printed value. Where “and” joins values, the source holds several entries; their conditions need not be identical. Equal entries are not always repeated. Structures can show the parent of a compound that is named as a salt. Where two headings read alike, the source gives them in different places. Numbered stars: 1 amine (or outer) side, 2 acyl side, 3 side chain; on linkers, the order of the positions; unused ones are H or OH. Bridge positions count the residues as written; N and C are the ends. Square brackets hold non-standard residues; d marks the D form. Peptide text beside a SMILES is read from it. I, II: the chains in the order shown. Actinocin(9to1) = Cc1c2oc3c(C)ccc(C(=O)[*:1])c3nc-2c(C(=O)[*:2])c(N)c1=O; NMeV = CN[C@H](C(=O)O)C(C)C; Sar = CNCC(=O)O

How the values were obtained:
[1] = tested on: Bacillus subtilis 168; assay: Antibiotic MIC tests in microtiter plates; conditions: for effect on MIC value when combined with anthranilic acid: anthranilic acid at around 2 mM, B. subtilis; for MIC with anthranilic acid (2.2 mM): antibiotic against B. subtilis in the presence of anthranilic acid (2.2 mM); for Effect: effect of anthranilic acid (2.2 mM) on MIC of the antibiotic against B. subtilis; for effect on the MIC of streptomycin: related compounds tested for synergistic effect with streptomycin (text, Table 4 title)
[2] = tested on: Streptomyces MBT3; assay: TLC biogram / agar overlay antimicrobial assay of EtOAc extracts of Streptomyces MBT3 cultures treated with plant hormones; type: cell-based, Streptomyces sp MBT3 (indicator strain B. subtilis); conditions: methyl-jasmonate 100 μM or salicylic acid 250 μM added to 7 day cultures, 24 hours; B. subtilis indicator
Protocol: All media for growth of Streptomyces are described in (Kieser et al., 2000). For the preparation of Streptomyces cultures, spores were obtained from SFM agar plates and inoculated at a density of 5×10^6 into 20 ml liquid minimal media with mannitol and glycerol as the carbon sources culture media in a 250 ml Erlenmeyer flask and incubated at 30° C. in a rotary shaker (250 rpm). Mycelia were precipitated by centrifugation for 10 minutes at 12,000 g. Each replicate of culture supernatant was extracted twice with an equal amount (40 ml in total) of analytically pure EtOAc (Sigma-Aldrich St. Louis, Mo., USA). Two grams of Na2SO4 was then added into the organic phase to remove remaining water and was evaporated under vacuum at 38° C. Samples were then re-dissolved in Methanol-d4 (99.8%) (Cambridge Isotope Laboratories, Inc., Andover, Mass., USA) for NMR analysis. 1.5 ml of the culture was collected every three hours and centrifuged. […]
Actinomycetes are very abundantly present in the plant rhizosphere. […] The ethyl acetate extract of the culture fluid of MBT3 was analyzed further for metabolic profile and antimicrobial activity against Bacillus subtilis.
Antimicrobial activity of the extracts was analyzed using thin layer chromatography (TLC) biograms. […]

[3] = tested on: Legionella pneumophila; conditions: Sasaki et al., 2012; cited from earlier work
[4] = Bacillus subtilis, 168, antibiotic alone against B. subtilis (Table 2)
[5] = antibiotic alone against B. subtilis (Table 2)
[6] = antibiotic alone against B. subtilis (Table 3)
[7] = Bacillus subtilis, 168, compound alone (Table 4)
[8] = Bacillus subtilis, 168, antibiotic alone against B. subtilis (Table 3)

Compound: CC[C@H]1OC(=O)[C@H](C)[C@@H](O[C@H]2C[C@@](C)(OC)[C@@H](O)[C@H](C)O2)[C@H](C)[C@@H](O[C@@H]2O[C@H](C)C[C@H](N(C)C)[C@H]2O)[C@](C)(O)C[C@@H](C)C(=O)[C@H](C)[C@@H](O)[C@]1(C)O [Erythromycin]
- MIC [1, 4]: 0.122 µg/mL (≈ 0.166 µM)

Compound: Neomycin [Neomycin (sulfate)]
- effect on MIC value when combined with anthranilic acid [1]: decreased
- MIC with anthranilic acid (2.2 mM) [1]: 15.6 µg/mL
- MIC [1, 5]: 62.5 µg/mL
- MIC [1, 6]: 62.5 µg/mL
- Effect [1]: Lower MIC

Compound: O=C(O)c1ccccc1O [Salicylic acid (sodium salt), Salicylic acid]
- effect on antimicrobial activity (bioactivity) of MBT3 [2]: no effect
- MIC [1, 7]: > 1500 µg/mL

Compound: CCC[C@@H]1C[C@@H](C(=O)N[C@@H]([C@H]2O[C@H](SC)[C@H](O)[C@@H](O)[C@H]2O)[C@H](C)Cl)N(C)C1 [Clindamycin (HCl), Clindamycin]
- MIC [1, 4]: 0.488 µg/mL
- MIC [1, 8]: 0.488 µg/mL
- MIC with anthranilic acid (2.2 mM) [1]: 0.244 µg/mL

Compound: CN[C@H](CC(C)C)C(=O)N[C@H]1C(=O)N[C@@H](CC(N)=O)C(=O)N[C@H]2C(=O)N[C@H]3C(=O)N[C@H](C(=O)N[C@H](C(=O)O)c4cc(O)cc(O)c4-c4cc3ccc4O)[C@H](O)c3ccc(c(Cl)c3)Oc3cc2cc(c3O[C@@H]2O[C@H](CO)[C@@H](O)[C@H](O)[C@H]2O[C@H]2C[C@](C)(N)[C@H](O)[C@H](C)O2)Oc2ccc(cc2Cl)[C@H]1O [Vancomycin (HCl), Vancomycin]
- MIC ([1]; Bacillus subtilis, 168): 0.156 µg/mL
- effect on MIC value when combined with anthranilic acid [1]: No synergistic effect
- MIC with anthranilic acid (2.2 mM) [1]: 0.156 µg/mL
- MIC [1, 6]: 0.156 µg/mL
- Effect [1]: No effect

Compound: O=C(O)c1cccc(O)c1O [2,3-dihydroxybenzoic acid]
- MIC [1, 7]: 750 µg/mL (≈ 4870 µM)
- effect on the MIC of streptomycin [1]: duplication of the MIC value

Compound: Actinomycin C2
- MIC [1, 5]: 0.25 µg/mL

Compound: CCn1cc(C(=O)O)c(=O)c2ccc(C)nc21 [Nalidixic acid]
- MIC [1, 4]: 3.1 µg/mL (≈ 13.3 µM)

Compound: O=C(O)[C@@H]1CCCN1 [L-Proline]
- MIC [1, 7]: > 1500 µg/mL

Compound: Actinomycin C
- effect on MIC value when combined with anthranilic acid [1]: decreased
- MIC with anthranilic acid (2.2 mM) [1]: 0.039 µg/mL
- MIC [1, 5]: 0.078 µg/mL
- MIC [1, 6]: 0.078 µg/mL
- Effect [1]: Lower MIC

Compound: Gentamycin [Gentamycin (sulfate)]
- effect on MIC value when combined with anthranilic acid [1]: decreased
- MIC with anthranilic acid (2.2 mM) [1]: 0.625 µg/mL
- MIC [1, 5]: 1.25 µg/mL
- MIC [1, 6]: 1.25 µg/mL
- Effect [1]: Lower MIC

Compound: CC1=C(C(=O)O)N2C(=O)[C@@H](NC(=O)[C@H](N)c3ccccc3)[C@H]2SC1 [Cephalexin (1H2O), Cephalexin]
- MIC [1, 4]: 0.122 µg/mL (≈ 0.351 µM)
- MIC [1, 8]: 0.122 µg/mL (≈ 0.351 µM)
- Effect [1]: Lower MIC

Compound: NC[C@H]1O[C@H](O[C@H]2[C@H](O)[C@@H](O[C@H]3O[C@H](CO)[C@@H](O)[C@H](N)[C@H]3O)[C@H](N)C[C@@H]2N)[C@H](O)[C@@H](O)[C@@H]1O [Kanamycin (sulfate), Kanamycin]
- MIC [1, 4]: 125 µg/mL
- MIC [1, 8]: 125 µg/mL
- MIC with anthranilic acid (2.2 mM) [1]: 31.2 µg/mL

Compound: [H]/N=C(/N)N[C@H]1[C@H](O)[C@@H](O)[C@H](O[C@@H]2O[C@@H](C)[C@](O)(C=O)[C@H]2O[C@@H]2O[C@@H](CO)[C@H](O)[C@@H](O)[C@@H]2NC)[C@@H](N/C(N)=N\[H])[C@@H]1O [Streptomycin (sulfate), Streptomycin]
- MIC of streptomycin ([1]; 75 μg/μl anthranilate): 15000 µg/mL
- reduction of MIC of streptomycin ([1]; 75 μg/μl anthranilate): 50%
- MIC [1, 4]: 31.2 µg/mL
- MIC [1, 8]: 31.2 µg/mL
- MIC [1, 7]: 31.2 µg/mL
- MIC ([1]; Bacillus subtilis, 168, read-out: MIC value of streptomycin, Bacillus subtilis, no anthranilic acid (FIG. 3)): 31.2 µg/mL
- MIC ([1]; Bacillus subtilis, 168, read-out: MIC value of streptomycin, at 300 μg/ml anthranilic acid (FIG. 3)): 5 µg/mL
- MIC value of streptomycin ([1]; Bacillus subtilis, no anthranilic acid (FIG. 3)): 30 µg/mL and 31.25 ± 0.05 µg/mL
- reduction in the MIC of streptomycin ([1]; anthranilate at concentrations of 300 μg/μl and higher): six-fold
- MIC value of Streptomycin reduced by a factor ([1]; anthranilic acid about 50 μg/ml in the culture): 2
- MIC value of Streptomycin reduced by a factor ([1]; anthranilic acid about 150 μg/ml in the culture): 3
- MIC value of Streptomycin reduced by a factor ([1]; anthranilic acid about 300 μg/ml in the culture): 6
- effect on MIC value when combined with anthranilic acid [1]: decreased
- MIC with anthranilic acid (2.2 mM) [1]: 5 µg/mL
- decrease of streptomycin MIC (times) ([1]; combined with anthranilic acid, concentration dependent): up to 6 times
- Effect [1]: Lower MIC

Compound: Cc1c2oc3c(C)ccc(C(=O)N[C@@H]4C(=O)N[C@H](C(C)C)C(=O)N5CCC[C@H]5C(=O)N(C)CC(=O)N(C)[C@@H](C(C)C)C(=O)O[C@@H]4C)c3nc-2c(C(=O)N[C@@H]2C(=O)N[C@H](C(C)C)C(=O)N3CCC[C@H]3C(=O)N(C)CC(=O)N(C)[C@@H](C(C)C)C(=O)O[C@@H]2C)c(N)c1=O [Actinomycin D] (I: T[dV]P[Sar][NMeV] / II: T[dV]P[Sar][NMeV]; ester I:1-I:C, II:1-II:C; linker I:N-II:N via Actinocin(9to1))
- MIC with anthranilic acid (2.2 mM) [1]: 0.156 µg/mL
- MIC [1, 5]: 0.156 µg/mL (≈ 0.124 µM)
- MIC [1, 6]: 0.156 µg/mL (≈ 0.124 µM)
- Effect [1]: No effect

Compound: Nc1cccc(C(=O)O)c1 [3-aminobenzoic acid]
- MIC [1, 7]: 750 µg/mL (≈ 5470 µM)

Compound: CN[C@@H]1[C@@H](O[C@H]2O[C@H](CO)[C@@H](N)[C@H](O)[C@H]2O)OC2C[C@@H](N)[C@@H](O[C@H]3[C@H](O)[C@@H](O)[C@H](N)C[C@@H]3N)OC2[C@@H]1O (stereo partly drawn) [Apramycin (sulfate), Apramycin]
- MIC [1, 4]: 1.95 µg/mL
- MIC [1, 8]: 1.95 µg/mL
- MIC with anthranilic acid (2.2 mM) [1]: 1.953 µg/mL
- Effect [1]: No effect

Compound: Oc1ccccc1O [Catechol]
- MIC [1, 7]: 750 µg/mL (≈ 6810 µM)
- effect on the MIC of streptomycin [1]: duplication of the MIC value

Compound: Benzoic acid
- MIC ([1]; compound alone (Table 4)): >750 µg/mL

Compound: NC(=O)c1ccccc1N [Anthranilic acid amide]
- MIC [1, 7]: > 1500 µg/mL

Compound: O=C(O)[C@@H]1CCCN1 (racemic) [D,L-Proline]
- MIC ([1]; compound alone (Table 4)): >750 µg/mL

Compound: CO[C@H]1/C=C/O[C@@]2(C)Oc3c(C)c(O)c4c(O)c(c(/C=N/N5CCN(C)CC5)c(O)c4c3C2=O)NC(=O)/C(C)=C\C=C\[C@H](C)[C@H](O)[C@@H](C)[C@@H](O)[C@@H](C)[C@H](OC(C)=O)[C@@H]1C [Rifampin]
- MIC [1, 4]: 0.0122 µg/mL (≈ 0.0148 µM)
- MIC [1, 8]: 0.0122 µg/mL (≈ 0.0148 µM)
- MIC with anthranilic acid (2.2 mM) [1]: 0.0122 µg/mL
- Effect [1]: No effect

Compound: CC/C=C\CC1C(=O)CCC1CC(=O)OC (stereo not drawn) [methyl jasmonate]
- effect on antimicrobial activity (bioactivity) of MBT3 [2]: strongly enhanced

Compound: Nc1ccc(C(=O)O)cc1 [4-aminobenzoic acid]
- MIC [1, 7]: 750 µg/mL (≈ 5470 µM)

Compound: Nc1cc(N)cc(C(=O)O)c1 [3,5-diaminobenzoic acid]
- MIC [1, 7]: > 750 µg/mL

Compound: O=C1O[C@H]([C@@H](O)CO)C(O)=C1O [L-Ascorbic acid (sodium salt), L-Ascorbic acid]
- MIC [1, 7]: > 750 µg/mL

Compound: CC1(C)S[C@@H]2[C@H](NC(=O)Cc3ccccc3)C(=O)N2[C@H]1C(=O)[O-].[Na+] [Penicillin G (sodium salt), Penicillin G]
- effect on MIC value when combined with anthranilic acid [1]: decreased
- MIC with anthranilic acid (2.2 mM) [1]: 0.0031 µg/mL
- MIC [1, 5]: 0.0062 µg/mL
- MIC [1, 6]: 0.0062 µg/mL
- Effect [1]: Lower MIC

Compound: CC1(C)S[C@@H]2[C@H](NC(=O)[C@H](N)c3ccccc3)C(=O)N2[C@H]1C(=O)O [Ampicillin (sodium salt), Ampicillin]
- MIC [1, 4]: 0.0153 µg/mL

Compound: Nc1ccccc1C(=O)O [anthranilic acid]
- growth inhibitory effect [3]: mild growth inhibitory effect
- activity against B. subtilis ([1]; compound itself, at concentrations below 5 mg/ml): did not show any activity

Compound: O=C(N[C@H](CO)[C@H](O)c1ccc([N+](=O)[O-])cc1)C(Cl)Cl [Chloramphenicol]
- MIC [1, 4]: 125 µg/mL (≈ 387 µM)
- MIC [1, 8]: 125 µg/mL (≈ 387 µM)
- MIC with anthranilic acid (2.2 mM) [1]: 125 µg/mL
- Effect [1]: No effect
